The values below come from US12509452B2, “Substituted-isoxazoline-containing aromatic compound, preparation method therefor, herbicidal composition and use thereof” (QINGDAO KINGAGROOT CHEMICAL COMPOUND CO., LTD., priority 2019, dated 2025).

Experiment in all cases: weeding effect in post-emergence stage
Common to all, as to format: in vivo

One experiment has as its system Beckmannia syzigachne. An excerpt:
(§1) The activity level criteria for plant damage (i.e., growth control rate) are as follows: • Level 5: growth control rate is above 85%; • Level 4: growth control rate is greater than or equal to 60% and less than 85%; • Level 3: growth control rate is greater than or equal to 40% and less than 60%; • Level 2: growth control rate is greater than or equal to 20% and less than 40%; • Level 1: growth control rate is greater than or equal to 5% and less than 20%; • Level 0: growth control rate is less than 5%.
(§2) The above growth control rates are fresh weight control rates.
(§3) Experiment on weeding effect in post-emergence stage:
(§4) Monocotyledonous and dicotyledonous weed seeds (Descurainia sophia, Capsella bursa-pastoris, Abutilon theophrasti, Galium aparine, Stellaria media, Lithospermum arvense, Rorippa indica, Alopecurus aequalis, Alopecurus japonicus, Beckmannia syzigachne, Sclerochloa dura, Conyza Canadensis, Phleum paniculatum, Veronica didyma Tenore, Bromus japonicus, Aegilops tauschii, Phalaris arundinacea, Amaranthus retroflexus, Chenopodium album, Commelina communis, Sonchus arvensis, Convolvulus arvensis, Cirsium setosum, Solanum nigrum, Acalypha australis, Digitaria sanguinalis, Echinochloa crusgalli, Setaria viridis, Setaria glauca, Leptochloa chinensis, Monochoria vaginalis, Sagittaria trifolia, Scirpus juncoides, Cyperus rotundus, Cyperus iria, Cyperus difformis, Fimbristylis, Portulaca oleracea, Xanthium sibiricum, Pharbitis nil, Conyza japonica, etc.) and major crop seeds (wheat, corn, rice, soybean, cotton, oilseed rape, millet, sorghum, potato, sesame, ricinus, etc.) were placed in plastic pots filled with soil, then covered with 0.5-2 cm of soil, allowed to grow in a good greenhouse environment. After 2 weeks of sowing, the test plants were treated in the 2-3 leaf stage. The tested compounds of the present invention were respectively dissolved in acetone, then added with Tween 80 and 1.5 liter/ha of emulsifiable concentrate of methyl oleate as synergist, diluted with a certain amount of water to obtain a solution with a certain concentration, and sprayed with a spray tower onto the plants. After the application, the plants were cultured for 3 weeks in the greenhouse, and then the experimental results of the weeding were counted. The doses of the used compounds were 500, 250, 125, 60, 15, 7.5 g a.i./ha, and the averages were obtained by repeating for three times.

For the next experiment, the system named is Rorippa indica.
Description: as §1, §2, §3, §4

For a further experiment, the system named is Alopecurus japonicus.
Description: as §1, §2, §3, §4

In the next experiment the test system is Conyza japonica.
Description: as §1, §2, §3, §4

Take `COC(=O)C1(c2ccccc2)CC(c2cc(-n3c(=O)n(C)c(=S)n(C)c3=O)c(F)cc2Cl)=NO1` (racemic) [Compound 56]: in the experiment on Beckmannia syzigachne (dose 125 g a.i./ha), the “weeding effect in post-emergence stage, Beckmannia syzigachne (activity level)” value is 5 (Level 5: growth control rate is above 85%). Moreover, the “weeding effect in post-emergence stage, Rorippa indica (activity level)” value (“weeding effect … Rorippa indica (activity level)” below) in the experiment with Rorippa indica (dose 125 g a.i./ha) was 5 (Level 5: growth control rate is above 85%). Besides, the “weeding effect in post-emergence stage, Alopecurus japonicus (activity level)” value in the experiment on Alopecurus japonicus (dose 125 g a.i./ha) is reported as 5 (Level 5: growth control rate is above 85%). In addition, the “weeding effect in post-emergence stage, Conyza japonica (activity level)” value with Conyza japonica (dose 125 g a.i./ha) is 5 (Level 5: growth control rate is above 85%).
With `COC(=O)C1(Cc2ccccc2)CC(c2cc(-n3c(=O)n(C)c(=S)n(C)c3=O)c(F)cc2Cl)=NO1` (racemic) [Compound 59], the “weeding effect in post-emergence stage, Beckmannia syzigachne (activity level)” value in the experiment with Beckmannia syzigachne (dose 125 g a.i./ha) is listed as 5 (Level 5: growth control rate is above 85%). Besides, the “weeding effect … Rorippa indica (activity level)” value in the experiment on Rorippa indica (dose 125 g a.i./ha) is 5 (Level 5: growth control rate is above 85%). Besides, in the experiment with Alopecurus japonicus (dose 125 g a.i./ha), the “weeding effect in post-emergence stage, Alopecurus japonicus (activity level)” value was 5 (Level 5: growth control rate is above 85%). The “weeding effect in post-emergence stage, Conyza japonica (activity level)” value in the experiment with Conyza japonica (dose 125 g a.i./ha) is reported as 5 (Level 5: growth control rate is above 85%).
Regarding `CCOC(=O)C1(CC)CC(c2cc(-n3c(=O)cc(C(F)(F)F)n(C)c3=O)c(F)cc2Cl)=NO1` (racemic) [Compound 105], the “weeding effect in post-emergence stage, Beckmannia syzigachne (activity level)” value in the experiment with Beckmannia syzigachne (dose 15 g a.i./ha) and in the experiment on Beckmannia syzigachne (dose 125 g a.i./ha) was 5 (Level 5: growth control rate is above 85%) each time. Besides, the “weeding effect … Rorippa indica (activity level)” value with Rorippa indica (dose 15 g a.i./ha) and in the experiment with Rorippa indica (dose 125 g a.i./ha) was 5 (Level 5: growth control rate is above 85%) throughout. The “weeding effect in post-emergence stage, Alopecurus japonicus (activity level)” value in the experiment with Alopecurus japonicus (dose 15 g a.i./ha) and with Alopecurus japonicus (dose 125 g a.i./ha) was 5 (Level 5: growth control rate is above 85%) throughout. Further, the “weeding effect in post-emergence stage, Conyza japonica (activity level)” value with Conyza japonica (dose 15 g a.i./ha) and in the experiment on Conyza japonica (dose 125 g a.i./ha) was 5 (Level 5: growth control rate is above 85%) in each case.
In the case of `CCOC(=O)C1(C2CC2)CC(c2cc(-n3c(=O)cc(C(F)(F)F)n(C)c3=O)c(F)cc2Cl)=NO1` (racemic) [Compound 119], the “weeding effect in post-emergence stage, Beckmannia syzigachne (activity level)” value in the experiment on Beckmannia syzigachne (dose 15 g a.i./ha) and with Beckmannia syzigachne (dose 125 g a.i./ha) was 5 (Level 5: growth control rate is above 85%) in each case. Besides, the “weeding effect … Rorippa indica (activity level)” value with Rorippa indica (dose 15 g a.i./ha) and in the experiment on Rorippa indica (dose 125 g a.i./ha) was 5 (Level 5: growth control rate is above 85%) each time. Further, the “weeding effect in post-emergence stage, Alopecurus japonicus (activity level)” value in the experiment with Alopecurus japonicus (dose 15 g a.i./ha) and in the experiment on Alopecurus japonicus (dose 125 g a.i./ha) was 5 (Level 5: growth control rate is above 85%) in each case. Moreover, the “weeding effect in post-emergence stage, Conyza japonica (activity level)” value with Conyza japonica (dose 15 g a.i./ha) and with Conyza japonica (dose 125 g a.i./ha) was 5 (Level 5: growth control rate is above 85%) throughout.
Turning to `CCOC(=O)C1(C2CCC2)CC(c2cc(-n3c(=O)cc(C(F)(F)F)n(C)c3=O)c(F)cc2Cl)=NO1` (racemic) [Compound 126], the “weeding effect in post-emergence stage, Beckmannia syzigachne (activity level)” value in the experiment with Beckmannia syzigachne (dose 125 g a.i./ha) is 5 (Level 5: growth control rate is above 85%). Moreover, in the experiment with Rorippa indica (dose 125 g a.i./ha), the “weeding effect … Rorippa indica (activity level)” value was 5 (Level 5: growth control rate is above 85%). The “weeding effect in post-emergence stage, Alopecurus japonicus (activity level)” value in the experiment with Alopecurus japonicus (dose 125 g a.i./ha) is 5 (Level 5: growth control rate is above 85%). In addition, in the experiment on Conyza japonica (dose 125 g a.i./ha), the “weeding effect in post-emergence stage, Conyza japonica (activity level)” value is reported as 5 (Level 5: growth control rate is above 85%).
`COC(=O)C1(F)CC(c2cc(-n3c(=O)cc(C(F)(F)F)n(C)c3=O)c(F)cc2Cl)=NO1` (racemic) [Compound 129]: the “weeding effect in post-emergence stage, Beckmannia syzigachne (activity level)” value with Beckmannia syzigachne (dose 125 g a.i./ha) was 5 (Level 5: growth control rate is above 85%). The “weeding effect … Rorippa indica (activity level)” value with Rorippa indica (dose 125 g a.i./ha) was 5 (Level 5: growth control rate is above 85%). Also, in the experiment on Alopecurus japonicus (dose 125 g a.i./ha), the “weeding effect in post-emergence stage, Alopecurus japonicus (activity level)” value was 5 (Level 5: growth control rate is above 85%). The “weeding effect in post-emergence stage, Conyza japonica (activity level)” value with Conyza japonica (dose 125 g a.i./ha) was 5 (Level 5: growth control rate is above 85%).
Regarding `CCOC(=O)C1(CF)CC(c2cc(-n3c(=O)cc(C(F)(F)F)n(C)c3=O)c(F)cc2Cl)=NO1` (racemic) [Compound 132], in the experiment on Beckmannia syzigachne (dose 125 g a.i./ha), the “weeding effect in post-emergence stage, Beckmannia syzigachne (activity level)” value is 5 (Level 5: growth control rate is above 85%). For the same compound, the “weeding effect … Rorippa indica (activity level)” value in the experiment with Rorippa indica (dose 125 g a.i./ha) is 5 (Level 5: growth control rate is above 85%). Also, the “weeding effect in post-emergence stage, Alopecurus japonicus (activity level)” value with Alopecurus japonicus (dose 125 g a.i./ha) is on record as 5 (Level 5: growth control rate is above 85%). For the same compound, the “weeding effect in post-emergence stage, Conyza japonica (activity level)” value with Conyza japonica (dose 125 g a.i./ha) is 5 (Level 5: growth control rate is above 85%).
Turning to `CCOC(=O)C1(C(F)F)CC(c2cc(-n3c(=O)cc(C(F)(F)F)n(C)c3=O)c(F)cc2Cl)=NO1` (racemic) [Compound 134], the “weeding effect in post-emergence stage, Beckmannia syzigachne (activity level)” value with Beckmannia syzigachne (dose 125 g a.i./ha) is recorded as 5 (Level 5: growth control rate is above 85%). In addition, the “weeding effect … Rorippa indica (activity level)” value with Rorippa indica (dose 125 g a.i./ha) is 5 (Level 5: growth control rate is above 85%). For the same compound, the “weeding effect in post-emergence stage, Alopecurus japonicus (activity level)” value in the experiment with Alopecurus japonicus (dose 125 g a.i./ha) is reported as 5 (Level 5: growth control rate is above 85%). Moreover, in the experiment on Conyza japonica (dose 125 g a.i./ha), the “weeding effect in post-emergence stage, Conyza japonica (activity level)” value is 5 (Level 5: growth control rate is above 85%).
As for `CCOC(=O)C1(C(F)(F)F)CC(c2cc(-n3c(=O)cc(C(F)(F)F)n(C)c3=O)c(F)cc2Cl)=NO1` (racemic) [Compound 135], the “weeding effect in post-emergence stage, Beckmannia syzigachne (activity level)” value with Beckmannia syzigachne (dose 125 g a.i./ha) is given as 5 (Level 5: growth control rate is above 85%). The “weeding effect … Rorippa indica (activity level)” value with Rorippa indica (dose 125 g a.i./ha) was 5 (Level 5: growth control rate is above 85%). In the experiment with Alopecurus japonicus (dose 125 g a.i./ha), the “weeding effect in post-emergence stage, Alopecurus japonicus (activity level)” value is 5 (Level 5: growth control rate is above 85%). Further, the “weeding effect in post-emergence stage, Conyza japonica (activity level)” value in the experiment with Conyza japonica (dose 125 g a.i./ha) was 5 (Level 5: growth control rate is above 85%).
In the case of `CCOC(=O)C1(CCF)CC(c2cc(-n3c(=O)cc(C(F)(F)F)n(C)c3=O)c(F)cc2Cl)=NO1` (racemic) [Compound 136], the “weeding effect in post-emergence stage, Beckmannia syzigachne (activity level)” value in the experiment with Beckmannia syzigachne (dose 125 g a.i./ha) was 5 (Level 5: growth control rate is above 85%). The “weeding effect … Rorippa indica (activity level)” value in the experiment with Rorippa indica (dose 125 g a.i./ha) is given as 5 (Level 5: growth control rate is above 85%). Besides, the “weeding effect in post-emergence stage, Alopecurus japonicus (activity level)” value in the experiment on Alopecurus japonicus (dose 125 g a.i./ha) is on record as 5 (Level 5: growth control rate is above 85%). In addition, the “weeding effect in post-emergence stage, Conyza japonica (activity level)” value in the experiment on Conyza japonica (dose 125 g a.i./ha) is 5 (Level 5: growth control rate is above 85%).
With `CCOC(=O)C1(CO)CC(c2cc(-n3c(=O)cc(C(F)(F)F)n(C)c3=O)c(F)cc2Cl)=NO1` (racemic) [Compound 142], the “weeding effect in post-emergence stage, Beckmannia syzigachne (activity level)” value with Beckmannia syzigachne (dose 125 g a.i./ha) is 5 (Level 5: growth control rate is above 85%). Further, in the experiment on Rorippa indica (dose 125 g a.i./ha), the “weeding effect … Rorippa indica (activity level)” value is 5 (Level 5: growth control rate is above 85%). Also, in the experiment on Alopecurus japonicus (dose 125 g a.i./ha), the “weeding effect in post-emergence stage, Alopecurus japonicus (activity level)” value is given as 5 (Level 5: growth control rate is above 85%). For the same compound, the “weeding effect in post-emergence stage, Conyza japonica (activity level)” value with Conyza japonica (dose 125 g a.i./ha) is given as 5 (Level 5: growth control rate is above 85%).
For the compound `CCOC(=O)C1(C=O)CC(c2cc(-n3c(=O)cc(C(F)(F)F)n(C)c3=O)c(F)cc2Cl)=NO1` (racemic) [Compound 152], in the experiment on Beckmannia syzigachne (dose 125 g a.i./ha), the “weeding effect in post-emergence stage, Beckmannia syzigachne (activity level)” value is 5 (Level 5: growth control rate is above 85%). For the same compound, the “weeding effect … Rorippa indica (activity level)” value in the experiment on Rorippa indica (dose 125 g a.i./ha) is recorded as 5 (Level 5: growth control rate is above 85%). The “weeding effect in post-emergence stage, Alopecurus japonicus (activity level)” value with Alopecurus japonicus (dose 125 g a.i./ha) is recorded as 5 (Level 5: growth control rate is above 85%). In the experiment on Conyza japonica (dose 125 g a.i./ha), the “weeding effect in post-emergence stage, Conyza japonica (activity level)” value is 5 (Level 5: growth control rate is above 85%).
With `CCOC(=O)C1(COC=O)CC(c2cc(-n3c(=O)cc(C(F)(F)F)n(C)c3=O)c(F)cc2Cl)=NO1` (racemic) [Compound 218], the “weeding effect in post-emergence stage, Beckmannia syzigachne (activity level)” value in the experiment on Beckmannia syzigachne (dose 125 g a.i./ha) is 5 (Level 5: growth control rate is above 85%). The “weeding effect … Rorippa indica (activity level)” value in the experiment on Rorippa indica (dose 125 g a.i./ha) is on record as 5 (Level 5: growth control rate is above 85%). Moreover, the “weeding effect in post-emergence stage, Alopecurus japonicus (activity level)” value with Alopecurus japonicus (dose 125 g a.i./ha) is recorded as 5 (Level 5: growth control rate is above 85%). Also, the “weeding effect in post-emergence stage, Conyza japonica (activity level)” value in the experiment with Conyza japonica (dose 125 g a.i./ha) is 5 (Level 5: growth control rate is above 85%).
